Laboratory results taken from PMC3968014, “Design and Synthesis of a Library of Lead-Like 2,4-Bisheterocyclic Substituted Thiophenes as Selective Dyrk/Clk Inhibitors” (PLoS ONE, 2014).
Values belong to the compound of their own block, whether it stands above or below them.

What was measured:
Format in all cases: biochemical
Dyrk1A = molecular target: T1, Dyrk1A (Homo sapiens, UniProt Q13627); assay: Dyrk1A kinase assay (32P-ATP, Woodtide); conditions: for IC50: 100 µM ATP; for inhibition at 5 µM: read-out: percentage of inhibition Dyrk1A; for inhibition at 5 µM / percentage of inhibition Dyrk1A: at 5 µM
T1 construct: encoding the catalytic domain of human Dyrk1A; thrombin cleavage site (N); made in house; host or cells: Escherichia coli BL21(DE3) with pRARE

CK2α = molecular target: T2, CK2α (Homo sapiens, UniProt P68400); assay: CK2α kinase assay (counter screen); conditions: read-out: percentage of inhibition CK2α
T2 construct: purchased Life Technologies (Invitrogen SelectScreen); Dyrk1A, Dyrk2 and CK2α in-house or gifts
T2 sequence (P68400 whole entry): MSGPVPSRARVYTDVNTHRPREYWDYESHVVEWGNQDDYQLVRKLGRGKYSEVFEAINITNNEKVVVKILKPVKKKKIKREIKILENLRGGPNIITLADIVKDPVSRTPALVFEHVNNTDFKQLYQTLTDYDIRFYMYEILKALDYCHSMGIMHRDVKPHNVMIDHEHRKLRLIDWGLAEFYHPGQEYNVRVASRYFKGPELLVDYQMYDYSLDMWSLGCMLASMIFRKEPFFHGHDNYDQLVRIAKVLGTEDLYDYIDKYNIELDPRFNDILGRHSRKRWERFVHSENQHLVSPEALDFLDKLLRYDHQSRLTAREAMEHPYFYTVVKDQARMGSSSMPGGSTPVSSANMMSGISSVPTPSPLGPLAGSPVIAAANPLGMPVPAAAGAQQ
Experimental: Dyrk1A, Dyrk1B, Dyrk2, CK2α and Clk1 kinase reactions were performed in a reaction buffer containing 50 mM Tris/HCl, pH 7.4, 0.1 mM EGTA, 0.5 mM DTT, 10 mM MgCl2, 100 µM ATP and 0.33 µM [γ-^32ATP] as well as the appropriate substrate peptides, which were 100 µM Woodtide for the Dyrk isoforms ([…]-NH2), 60 µM CK2 substrate peptide ([…]-NH2, from Millipore) for CK2α or RS repeat peptide ([…]) for Clk1. The CK2α protein was a kind gift of M. Montenarh (Homburg). The kinase reactions were performed at 30°C for 15 min and terminated by spotting 5 µL of the reaction mixture onto a P81 phosphocellulose membrane (Whatman). The membrane was washed four times with 0.3% phosphoric acid and one time with acetone and dried. The dry membrane was exposed in a cassette to a Phosphor Screen Imaging Plate (FujiFilm) and the signals detected by scanning of the imaging plate in a Fuji FLA-3000 PhosphoImager. The spots were quantified using AIDA software (Raytest, Version 3.52) to determine the activities of the kinases in the assay reactions. […] IC50 values were calculated by fitting the data with Origin Pro 8.6 (OriginLabs). The calculated IC50 values are representative of at least two independent determinations.

Dyrk1B = molecular target: T3, Dyrk1B (Homo sapiens, UniProt Q9Y463); assay: Dyrk1B kinase assay (32P-ATP, Woodtide); conditions: for IC50: 100 µM ATP; for percentage of inhibition Dyrk1B / inhibition at 5 µM: at 5 µM
T3 construct: purchased Life Technologies PV4649 (LOT # 877059G)
T3 sequence (Q9Y463 whole entry): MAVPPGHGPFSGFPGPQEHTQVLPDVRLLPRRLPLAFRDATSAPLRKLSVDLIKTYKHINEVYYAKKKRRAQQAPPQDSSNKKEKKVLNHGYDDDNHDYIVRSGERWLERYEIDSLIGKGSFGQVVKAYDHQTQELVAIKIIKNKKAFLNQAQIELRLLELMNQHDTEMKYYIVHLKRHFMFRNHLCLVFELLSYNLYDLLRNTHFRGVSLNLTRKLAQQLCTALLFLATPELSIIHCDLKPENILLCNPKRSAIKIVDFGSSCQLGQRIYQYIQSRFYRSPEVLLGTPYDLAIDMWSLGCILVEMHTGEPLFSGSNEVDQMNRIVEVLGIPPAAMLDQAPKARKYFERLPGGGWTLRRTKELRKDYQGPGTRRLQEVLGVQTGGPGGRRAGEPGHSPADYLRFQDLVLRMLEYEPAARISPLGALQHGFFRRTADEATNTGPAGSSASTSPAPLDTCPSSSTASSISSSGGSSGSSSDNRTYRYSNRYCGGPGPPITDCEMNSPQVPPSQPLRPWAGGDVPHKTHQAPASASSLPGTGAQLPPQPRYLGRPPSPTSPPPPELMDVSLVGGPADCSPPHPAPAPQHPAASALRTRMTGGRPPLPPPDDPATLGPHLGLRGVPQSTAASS

Dyrk2 = molecular target: T4, Dyrk2 (Homo sapiens, UniProt Q92630); assay: Dyrk2 kinase assay (32P-ATP, Woodtide); conditions: for inhibition at 1 µM / inhibition at 5 µM: read-out: percentage of inhibition Dyrk2; for IC50: 100 µM ATP, read-out: IC50 Dyrk2
T4 construct: made in house; host or cells: Escherichia coli BL21(DE3) with pRARE; plasmid pGEX-2TK-Dyrk2 (gift from W. Becker, Aachen)
T4 sequence (Q92630 1-601): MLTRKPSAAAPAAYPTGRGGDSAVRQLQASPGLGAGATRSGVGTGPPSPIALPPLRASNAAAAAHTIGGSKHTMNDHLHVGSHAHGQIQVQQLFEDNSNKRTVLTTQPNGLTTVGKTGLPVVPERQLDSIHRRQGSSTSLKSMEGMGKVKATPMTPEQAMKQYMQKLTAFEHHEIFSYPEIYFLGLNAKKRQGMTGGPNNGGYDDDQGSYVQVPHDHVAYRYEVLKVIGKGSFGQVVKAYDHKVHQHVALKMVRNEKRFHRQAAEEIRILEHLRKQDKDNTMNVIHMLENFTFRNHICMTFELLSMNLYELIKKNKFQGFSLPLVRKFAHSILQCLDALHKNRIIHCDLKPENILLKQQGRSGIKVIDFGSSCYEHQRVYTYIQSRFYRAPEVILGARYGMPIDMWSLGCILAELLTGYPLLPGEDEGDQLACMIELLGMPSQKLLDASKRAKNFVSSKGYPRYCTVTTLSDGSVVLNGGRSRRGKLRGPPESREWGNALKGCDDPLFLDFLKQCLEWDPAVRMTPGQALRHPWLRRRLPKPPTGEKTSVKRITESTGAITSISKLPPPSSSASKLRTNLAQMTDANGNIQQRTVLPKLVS

[1] = read-out: percentage of inhibition Dyrk1B

Compound: Cc1cc(-c2csc(-c3cccc(O)c3)c2)ccc1O [Compound 1]
- IC50 (Dyrk1A): 2 µM
- inhibition at 5 µM (CK2α): 15%

Compound: Cc1cc(O)cc(-c2csc(-c3cccc(O)c3)c2)c1 [Compound 2]
- inhibition at 5 µM (Dyrk1A): 10%

Compound: Cc1ccncc1-c1csc(-c2cccnc2)c1 [Compound 6]
- IC50 (Dyrk1A): 4.4 µM
- IC50 (Dyrk1B): 8 µM
- inhibition at 1 µM (Dyrk2): 10%
- inhibition at 5 µM (CK2α): 0%

Compound: Cc1ccc(-c2csc(-c3cccnc3)c2)cn1 [Compound 7]
- IC50 (Dyrk1A): 4.7 µM
- IC50 (Dyrk1B): 3.4 µM
- IC50 (Dyrk2): 1.6 µM
- inhibition at 5 µM (CK2α): 0%

Compound: COc1ccc(-c2csc(-c3cccnc3)c2)cn1 [Compound 9]
- IC50 (Dyrk1B): 34 µM
- percentage of inhibition Dyrk2 (Dyrk2; at 5 µM): No inhibition
- inhibition at 5 µM (CK2α): 0%

Compound: CCOc1cncc(-c2csc(-c3cccnc3)c2)c1 [Compound 10]
- inhibition at 5 µM (Dyrk1A): 45%
- inhibition at 1 µM (Dyrk1B; at 1 µM, read-out: percentage of inhibition Dyrk1B): 6%
- inhibition at 1 µM (Dyrk2): 22%
- inhibition at 5 µM (CK2α): 0%

Compound: Cc1cc(-c2csc(-c3cccnc3)c2)ccn1 [Compound 12]
- inhibition at 5 µM (Dyrk1A): 23%
- percentage of inhibition Dyrk1B (Dyrk1B): No inhibition
- inhibition at 5 µM (Dyrk2; at 5 µM): 37.5%

Compound: N#Cc1cncc(-c2csc(-c3cccnc3)c2)c1 [Compound 13]
- IC50 (Dyrk1A): 2.6 µM
- inhibition at 5 µM (Dyrk1B; [1]): 30%
- inhibition at 5 µM (Dyrk2; at 5 µM): 44%
- inhibition at 5 µM (CK2α): 3%

Compound: FC(F)(F)c1cncc(-c2csc(-c3cccnc3)c2)c1 [Compound 14]
- IC50 (Dyrk1A): 3.1 µM
- IC50 (Dyrk1B): 5.4 µM
- IC50 (Dyrk2): 3 µM
- inhibition at 5 µM (CK2α): 0%

Compound: Clc1cncc(-c2csc(-c3cccnc3)c2)c1 [Compound 16]
- IC50 (Dyrk1A): 1.2 µM
- IC50 (Dyrk1B): 1.9 µM
- IC50 (Dyrk2): 0.7 µM
- inhibition at 5 µM (CK2α): 14%

Compound: COC(=O)c1cncc(-c2csc(-c3cccnc3)c2)c1 [Compound 18]
- IC50 (Dyrk1A): 1.2 µM
- IC50 (Dyrk1B): 1.7 µM
- IC50 (Dyrk2): 1.5 µM
- inhibition at 5 µM (CK2α): 14%

Compound: [O-][n+]1cccc(-c2csc(-c3cccnc3)c2)c1 [Compound 25]
- inhibition at 5 µM (Dyrk1A): 4%

Compound: Cn1ccc(-c2csc(-c3cccnc3)c2)cc1=O [Compound 26]
- percentage of inhibition Dyrk1A (Dyrk1A): No inhibition
- percentage of inhibition Dyrk1B (Dyrk1B): No inhibition
- inhibition at 5 µM (Dyrk2; at 5 µM): 27%

Compound: c1cncc(-c2cc(-c3ccc4c(c3)CCO4)cs2)c1 [Compound 27]
- percentage of inhibition Dyrk1A (Dyrk1A): No inhibition
- percentage of inhibition Dyrk1B (Dyrk1B): No inhibition
- inhibition at 5 µM (Dyrk2; at 5 µM): 31%

Compound: c1cncc(-c2cc(-c3cscn3)cs2)c1 [Compound 28]
- inhibition at 5 µM (Dyrk1A): 31%
- IC50 (Dyrk2): 6.7 µM

Compound: Cn1cncc1-c1csc(-c2cccnc2)c1 [Compound 31]
- inhibition at 5 µM (Dyrk1A): 44%
- IC50 (Dyrk1B): 9.1 µM
- IC50 (Dyrk2): 5.1 µM

Continued, values first:

- inhibition at 5 µM (Dyrk1A): 0%
- inhibition at 5 µM (Dyrk1B; [1]): 18%
- inhibition at 5 µM (Dyrk2; at 5 µM): 12%
Compound: Clc1cncc(-c2csc(-c3cnco3)c2)c1 [Compound 34]

- inhibition at 5 µM (Dyrk1A): 25%
- inhibition at 5 µM (Dyrk1B; [1]): 40%
- inhibition at 5 µM (Dyrk2; at 5 µM): 16%
Compound: c1ncc(-c2csc(-c3cnco3)c2)cn1 [Compound 36]

- inhibition at 5 µM (Dyrk1A): 7%
- inhibition at 5 µM (Dyrk1B; [1]): 21%
- inhibition at 5 µM (Dyrk2; at 5 µM): 5%
Compound: CSc1ncc(-c2csc(-c3cnco3)c2)cn1 [Compound 37]

- inhibition at 5 µM (Dyrk1A): 20%
- IC50 (Dyrk1B): 8.07 µM
- inhibition at 5 µM (Dyrk2; at 5 µM): 19%
Compound: c1ccc2c(-c3csc(-c4cnco4)c3)cncc2c1 [Compound 39]

- inhibition at 5 µM (Dyrk1A): 18%
- inhibition at 5 µM (Dyrk1B; [1]): 9%
- inhibition at 5 µM (Dyrk2; at 5 µM): 30%
Compound: c1cc2cc(-c3csc(-c4cnco4)c3)ccc2[nH]1 [Compound 40]

- inhibition at 5 µM (Dyrk1A): 1%
- inhibition at 5 µM (Dyrk1B; [1]): 5%
- inhibition at 5 µM (Dyrk2; at 5 µM): 0%
Compound: Clc1cncc(-c2csc(-c3cncnc3)c2)c1 [Compound 42]

- inhibition at 5 µM (Dyrk1A): 2%
- inhibition at 5 µM (Dyrk1B; [1]): 27%
- inhibition at 5 µM (Dyrk2; at 5 µM): 27%
Compound: c1ncc(-c2csc(-c3cncnc3)c2)cn1 [Compound 44]

- inhibition at 5 µM (Dyrk1A): 8%
- inhibition at 5 µM (Dyrk1B; [1]): 20%
- inhibition at 5 µM (Dyrk2; at 5 µM): -24%
Compound: CSc1ncc(-c2csc(-c3cncnc3)c2)cn1 [Compound 45]

- inhibition at 5 µM (Dyrk1A): 9%
- inhibition at 5 µM (Dyrk1B; [1]): 33%
- inhibition at 5 µM (Dyrk2; at 5 µM): 15%
Compound: c1ccc2c(-c3csc(-c4cncnc4)c3)cncc2c1 [Compound 46]
